Laboratory results published in patent US8791267B2, “Biaryl PDE4 inhibitors for treating inflammatory, cardiovascular and CNS disorders” (Decode Genetics EHF, priority 2007, dated 2014).
Where a name gives a salt, the structure may show the parent alone.

These compounds were tested against PDE4 (Homo sapiens, UniProt Q08499) (assay: In-vitro assay for PDE4 enzymes, real-time enzyme-coupled spectrophotometric assay (Table 9)). Details: not given.
Format: biochemical

PDE4, sequence (Q08499 whole entry): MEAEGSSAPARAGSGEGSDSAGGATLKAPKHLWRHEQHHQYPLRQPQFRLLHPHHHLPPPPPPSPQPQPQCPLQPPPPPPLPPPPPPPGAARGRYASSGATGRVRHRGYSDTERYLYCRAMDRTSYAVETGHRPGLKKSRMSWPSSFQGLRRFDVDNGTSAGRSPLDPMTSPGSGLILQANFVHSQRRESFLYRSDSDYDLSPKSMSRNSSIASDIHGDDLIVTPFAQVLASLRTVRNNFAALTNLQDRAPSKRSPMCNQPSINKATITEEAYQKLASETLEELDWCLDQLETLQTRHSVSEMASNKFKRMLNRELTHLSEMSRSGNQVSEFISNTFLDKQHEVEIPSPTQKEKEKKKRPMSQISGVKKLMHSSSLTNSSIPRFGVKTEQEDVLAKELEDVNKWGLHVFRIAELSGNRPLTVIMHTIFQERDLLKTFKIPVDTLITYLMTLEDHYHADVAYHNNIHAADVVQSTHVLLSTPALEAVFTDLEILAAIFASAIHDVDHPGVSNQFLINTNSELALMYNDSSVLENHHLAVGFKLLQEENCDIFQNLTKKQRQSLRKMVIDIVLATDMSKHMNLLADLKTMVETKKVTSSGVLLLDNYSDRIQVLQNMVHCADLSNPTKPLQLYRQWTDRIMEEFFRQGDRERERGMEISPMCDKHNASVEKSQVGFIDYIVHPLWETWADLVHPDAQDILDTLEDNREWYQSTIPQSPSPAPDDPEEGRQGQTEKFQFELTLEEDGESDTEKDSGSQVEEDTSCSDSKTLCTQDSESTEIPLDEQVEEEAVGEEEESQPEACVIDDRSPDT

SMILES | IC50
COc1ccc(Cc2ccc(CNC(=O)Oc3ccccc3)nc2)c(F)c1-c1cccc(Cl)c1 [P-520, [5-(3′-Chloro-2-fluoro-6-methoxy-biphenyl-3-ylmethyl)-pyridin-2-ylmethyl]-carbamic acid phenyl ester] | < 5 µM

Same assay, conditions: human PDE4D; activity class, Table 9; read-out: hPDE4D

IC50 | SMILES
< 5 µM | CCOc1ccc(Cc2ccc(NC(C)=O)cc2)c(F)c1-c1cccc(Br)c1 [P-322]
< 5 µM | COc1ccc(Cc2ccc(N(C)C)cc2)c(F)c1-c1cccc(C(C)=O)c1 [P-326, 1-[3′-(4-Dimethylamino-benzyl)-2′-fluoro-6′-methoxy-biphenyl-3-yl]-ethanone]
< 5 µM | COc1ccc(Cc2ccc(NC(N)=O)cc2)c(F)c1-c1cccc(C(C)O)c1 (stereo not shown) [P-340, {4-[2-Fluoro-3′-(1-hydroxy-ethyl)-6-methoxy-biphenyl-3-ylmethyl]-phenyl}-urea]
< 5 µM | COc1ccc(Cc2ccc(N3CCOCC3)nc2)c(F)c1-c1cccc(Cl)c1 [P-377]
5 to 20 µM | COc1ccc(C=Cc2ccc(F)cc2)c(F)c1-c1cccc(Cl)c1 [P-418]
5 to 20 µM | COc1ccc(Cc2ccc(N3CCNCC3)nc2)c(F)c1-c1cccc(Cl)c1 [P-423, 1-[5-(3′-chloro-2-fluoro-6-methoxy-biphenyl-3-ylmethyl)-pyridin-2-yl]-piperazine]
< 5 µM | CCOC(=O)N1CCN(c2ccc(Cc3ccc(OC)c(-c4cccc(Cl)c4)c3F)cn2)CC1 [P-431]
< 5 µM | COc1ccc(C(=O)c2ccc(NC(N)=O)cc2)c(F)c1-c1cccc(Cl)c1 [P-434, [4-(3′-chloro-2-fluoro-6-methoxy-biphenyl-3-carbonyl)-phenyl]-urea]
< 5 µM | COc1ccc(Cn2cc(-c3ccc(NC(N)=O)cc3)cn2)c(F)c1-c1cccc(Cl)c1 [P-435]
< 5 µM | COc1ccc(Cc2ccc(Nc3nccs3)cc2)c(F)c1-c1cccc(Cl)c1 [P-466]
< 5 µM | CNc1ccc(Cc2ccc(OC)c(-c3cccc(Cl)c3)c2)cc1 [P-476, [4-(3′-Chloro-6-methoxy-biphenyl-3-ylmethyl)-phenyl]-methyl-amine hydrochloric acid]
< 5 µM | CCNC(=O)N1CCN(c2ccc(Cc3ccc(OC)c(-c4cccc(Cl)c4)c3F)cn2)CC1 [P-514, 4-[5-(3′-chloro-2-fluoro-6-methoxy-biphenyl-3-ylmethyl)-pyridin-2-yl]-piperazine-1-carboxylic acid ethylamide hydrochloride]
< 5 µM | COc1ccc(Cn2cc(-c3ccncc3)cn2)c(F)c1-c1cccc(Cl)c1 [P-528, 4-[1-(3′-Chloro-2-fluoro-6-methoxy-biphenyl-3-ylmethyl)-1H-pyrazol-4-yl]-pyridine]
< 5 µM | [2H]C(O)(c1ccc([N+](=O)[O-])cc1)c1ccc(OC)c(-c2cccc(Cl)c2)c1F (stereo not shown) [P-537, deutero-(3′-chloro-2-fluoro-6-methoxy-biphenyl-3-yl)-(4-nitro-phenyl)-methanol]
< 5 µM | [2H]C(O)(c1ccc(N)cc1)c1ccc(OC)c(-c2cccc(Cl)c2)c1F (stereo not shown) [P-538, deutero-(4-amino-phenyl)-(3′-chloro-2-fluoro-6-methoxy-biphenyl-3-yl)-methanol]
< 5 µM | COc1ccc(Cn2cc(-c3ccncn3)cn2)c(F)c1-c1cccc(Cl)c1 [P-546, 4-[1-(3′-Chloro-2-fluoro-6-methoxy-biphenyl-3-ylmethyl)-1H-pyrazol-4-yl]-pyrimidine hydrochloride salt]
< 5 µM | COc1ccc(Cn2nc(C(F)(F)F)cc2-c2cccnc2)c(F)c1-c1cccc(Cl)c1 [P-552, 3-[2-(3′-Chloro-2-fluoro-6-methoxy-biphenyl-3-ylmethyl)-5-trifluoromethyl-2H-pyrazol-3-yl]-pyridine hydrochloride salt]
< 5 µM | COc1ccc(C(=O)c2ccc(N)cc2)cc1-c1cccc(Cl)c1 [P-558, (4-amino-phenyl)-(3′-chloro-6-methoxy-biphenyl-3-yl)-methanone]
< 5 µM | COc1ccc(COc2ccc(Br)cn2)c(F)c1-c1cccc(Cl)c1 [P-574]
< 5 µM | COc1ccc(Cc2ccc(N3[C@@H](C)CC[C@@H]3C)nc2)c(F)c1-c1cccc(Cl)c1 [P-577, 5-(3′-Chloro-2-fluoro-6-methoxy-biphenyl-3-ylmethyl)-2-((2S,5S)-2,5-dimethyl-pyrrolidin-1-yl)-pyridine]
< 5 µM | COc1ccc(Cc2ccc(N3CCC[C@H]3C(C)(C)O)nc2)c(F)c1-c1cccc(Cl)c1 [P-581, 2-{(S)-1-[5-(3′-chloro-2-fluoro-6-methoxy-biphenyl-3-ylmethyl)-pyridin-2-yl]-pyrrolidin-2-yl}-propan-2-ol]
< 5 µM | COc1ccc(COc2ccc(N3CCC3)nc2)c(F)c1-c1cccc(Cl)c1 [P-586]
< 5 µM | COc1ccc(COc2ccc(NC(N)=O)cc2)c(F)c1-c1cccc(Cl)c1 [P-589]

Second part, the compound before the results:

SMILES | IC50
COc1ccc(Nc2ccc(NC(N)=O)cc2)cc1-c1cccc(Cl)c1 [P-294, [4-(3′-Chloro-6-methoxy-biphenyl-3-ylamino)-phenyl]-urea] | < 5 µM
COc1ccc(Cc2nnc(N)o2)cc1-c1cccc(Cl)c1 [P-306, 5-(3′-Chloro-6-methoxy-biphenyl-3-ylmethyl)-[1,3,4]oxadiazol-2-ylamine] | 5 to 20 µM
COc1ccc(Cc2ccc(F)cc2)cc1-n1cc(Cl)cn1 [P-380, 4-Chloro-1-[5-(4-fluoro-benzyl)-2-methoxy-phenyl]-1H-pyrazole] | < 5 µM
COc1ccc(Cc2ccc(NC(C)=O)cc2)c(F)c1-c1cccc(N2CCCC2)c1 [P-381, N-[4-(2-Fluoro-6-methoxy-3′-pyrrolidin-1-yl-biphenyl-3-ylmethyl)-phenyl]-acetamide] | < 5 µM
COc1ccc(Cc2ccc(F)cc2)cc1-c1cccc(N2CCOCC2)c1 [P-385, 4-[5′-(4-Fluoro-benzyl)-2′-methoxy-biphenyl-3-yl]-morpholine] | 5 to 20 µM
COc1ccc(Cc2ccc(F)cc2)cc1-n1cc(-c2ccncc2)cn1 [P-389, 4-{1-[5-(4-Fluoro-benzyl)-2-methoxy-phenyl]-1H-pyrazol-4-yl}-pyridine] | 5 to 20 µM
COc1ccc(Cc2ccc(NC(C)=O)cc2)c(F)c1-c1cccc(N2CCOCC2)c1 [P-390, N-[4-(2-Fluoro-6-methoxy-3′-morpholin-4-yl-biphenyl-3-ylmethyl)-phenyl]-acetamide] | 5 to 20 µM
COc1ccc(Cc2ccc(F)cc2)cc1-c1cccc(Cl)n1 [P-391, 2-Chloro-6-[5-(4-fluoro-benzyl)-2-methoxy-phenyl]-pyridine] | < 5 µM
COc1ccc(Cc2ccc(F)cc2)cc1-n1ccc(C(F)(F)F)n1 [P-396, 1-[5-(4-Fluoro-benzyl)-2-methoxy-phenyl]-3-trifluoromethyl-1H-pyrazole] | < 5 µM
CCNC(=O)Nc1ccc([S+]([O-])c2ccc(OC)c(-c3cccc(Cl)c3)c2)cc1 (stereo not shown) [P-449, 1-[4-(3′-Chloro-6-methoxy-biphenyl-3-sulfinyl)-phenyl]-3-ethyl urea] | < 5 µM
CCNC(=O)Nc1ccc(S(=O)(=O)c2ccc(OC)c(-c3cccc(Cl)c3)c2)cc1 [P-450, 1-[4-(3′-Chloro-6-methoxy-biphenyl-3-sulfonyl)-phenyl]-3-ethyl-urea] | < 5 µM
COc1ccc(Cc2ccc(Nc3nccs3)cc2)cc1-c1cccc(Cl)c1 [P-454, [4-(3′-Chloro-6-methoxy-biphenyl-3-ylmethyl)-phenyl]-thiazol-2-yl-amine] | < 5 µM
COc1ccc(Cc2ccc(F)cc2)cc1-c1cccnc1 [P-474, 3-[5-(4-Fluoro-benzyl)-2-methoxy-phenyl]-pyridine] | < 5 µM
COc1ccc(Cc2cccc(NC(C)=O)c2)cc1-c1cccc(Cl)c1 [P-477, N-[3-(3′-Chloro-6-methoxy-biphenyl-3-ylmethyl)-phenyl]-acetamide] | < 5 µM
COc1ccc(Cn2cnc3ccccc32)cc1-c1cccc([N+](=O)[O-])c1 [P-483, 1-(6-Methoxy-3′-nitro-biphenyl-3-ylmethyl)-1H-benzoimidazole] | < 5 µM
COc1ccc(Cn2cncn2)cc1-c1ccc2[nH]ccc2c1 [P-486, 5-(2-Methoxy-5-[1,2,4]triazol-1-ylmethyl-phenyl)-1H-indole] | 20 to 40 µM
COc1ccc(CO)nc1-c1cccc([N+](=O)[O-])c1 [P-491, [5-methoxy-6-(3-nitro-phenyl)-pyridin-2-yl]-methanol] | 20 to 40 µM
COc1ccc(CN2CCC[C@@H]2CO)cc1-c1cccc([N+](=O)[O-])c1 [P-493, [(R)-1-(6-Methoxy-3′-nitro-biphenyl-3-ylmethyl)-pyrrolidin-2-yl]-methanol] | 20 to 40 µM
COc1ccc(Cn2cncn2)cc1-c1cccc(S(C)(=O)=O)c1 [P-495, 1-(3′-Methanesulfonyl-6-methoxy-biphenyl-3-ylmethyl)-1H-[1,2,4]triazole] | 20 to 40 µM
O=CNCc1ccccc1Cc1ccc(O)c(-c2cccc([N+](=O)[O-])c2)c1 [P-501, N-[2-(6-Hydroxy-3′-nitro-biphenyl-3-ylmethyl)-benzyl]-formamide] | 5 to 20 µM
NC(=O)Nc1ccc(Cc2ccc(OCC3CCCO3)c(-c3cccc(Cl)c3)c2)cc1 (stereo not shown) [P-543, {4-[3′-Chloro-6-(tetrahydro-furan-2-ylmethoxy)-biphenyl-3-ylmethyl]-phenyl}-urea] | < 5 µM
CN(C)CCOc1ccc(Cc2ccc(NC(N)=O)cc2)cc1-c1cccc(Cl)c1 [P-548, {4-[3′-Chloro-6-(2-dimethylamino-ethoxy)-biphenyl-3-ylmethyl]-phenyl}-urea] | 5 to 20 µM
NC(=O)Nc1ccc(Cc2ccc(OC3CNC3)c(-c3cccc(Cl)c3)c2)cc1 [P-554, {4-[6-(Azetidin-3-yloxy)-3′-chloro-biphenyl-3-ylmethyl]-phenyl}-urea] | 5 to 20 µM
CN1CC[C@H](Oc2ccc(Cc3ccc(NC(N)=O)cc3)cc2-c2cccc(Cl)c2)C1 [P-556] | 5 to 20 µM
NC(=O)COc1ccc(Cc2ccc(NC(N)=O)cc2)cc1-c1cccc(Cl)c1 [P-557, 2-[3′-Chloro-5-(4-ureido-benzyl)-biphenyl-2-yloxy]-acetamide] | < 5 µM
COc1ccc(Cc2ccc(N3CCOCC3)nc2)cc1-c1cccc(Cl)c1 [P-572, 4-[5-(3′-chloro-6-methoxy-biphenyl-3-ylmethyl)-pyridin-2-yl]-morpholine] | < 5 µM
COc1ccc(C(=O)c2ccc(N)cc2)cc1-c1ccc(F)c(F)c1 [P-580] | < 5 µM
[2H]C(O)(c1ccc(NC(N)=O)cc1)c1ccc(OC)c(-c2cccc(Cl)c2)c1 (stereo not shown) [P-584] | 5 to 20 µM
